A short description of data set [1]: Skin absorption, Franz diffusion cells with dermatomed skin explants. The format is in vitro ADME. Here is the method: The transdermal absorption tests are carried out using a modified methodology of Franz diffusion cells, in which a semi-permeable membrane is used, such as reconstructed skin or skin explants. The membrane is located between the (i) donor and (ii) receptor compartments with the stratum corneum facing upward. The product is applied to the exposed stratum corneum in the donor compartment. Under the membrane, the receiving chamber contains a solution that simulates physiological conditions and where the tested substances are highly soluble.
After the product is delivered to the surface of the skin, samples are taken from the receptor compartment at predetermined times to determine the amount of substance accumulated in the receptor compartment as a function of time. In addition, at the end of the test, the extraction of the substance that has been retained in the skin is carried out. For the quantification of all the samples obtained, a suitable analytical method is necessary for each substance investigated. The skin explants were dermatomed (the dermatome device allows to cut skin layers of the skin at a determined thickness) at 200 μm thickness and placed on Franz cells, the receptor compartment was filled with PBS solution, used to simulate the physiological fluid and allowed to equilibrate for at least 30 minutes. Then, receptor solution was added into the donor compartment and the integrity of the skin was determined. After removing the solution and drying the donor, the composition of the invention 3 μl/0.38 cm2 (7.9 uL/cm2) was administered into the donor compartment.
Samples from the receptor compartment were taken at predetermined times to obtain the amount of active permeated. Said samples were filtered on 0.2 μm pore size cellulose acetate filters and analyzed by HPLC. The sample volume taken was replaced with fresh receptor solution. After taking the last sample from the receptor compartment, a first wash of the skin surface was performed with PBS, then, the Franz cells were disassembled.
The skin was carefully dried and the stratum corneum was removed by tape stripping. Tapes were put in 2 mL of extraction medium for at least 2 hours. The skin diffusion area was cut into small pieces and placed in extraction liquid under continuous stirring for 1 hour. After filtering the samples obtained, they were analyzed by HPLC to obtain the amount of substance retained on the skin.

Data set [2] addresses CB2 receptors (Homo sapiens, UniProt P34972). Particulars: compared with THC; cited from earlier work.
The mark [3] stands for this setting: 2 hours after application of the composition to the skin.
Setting [4] is: composition of the invention 7.9 uL/cm2 applied to skin explant, Franz cell.

Sequence of CB2 receptors (P34972 whole entry): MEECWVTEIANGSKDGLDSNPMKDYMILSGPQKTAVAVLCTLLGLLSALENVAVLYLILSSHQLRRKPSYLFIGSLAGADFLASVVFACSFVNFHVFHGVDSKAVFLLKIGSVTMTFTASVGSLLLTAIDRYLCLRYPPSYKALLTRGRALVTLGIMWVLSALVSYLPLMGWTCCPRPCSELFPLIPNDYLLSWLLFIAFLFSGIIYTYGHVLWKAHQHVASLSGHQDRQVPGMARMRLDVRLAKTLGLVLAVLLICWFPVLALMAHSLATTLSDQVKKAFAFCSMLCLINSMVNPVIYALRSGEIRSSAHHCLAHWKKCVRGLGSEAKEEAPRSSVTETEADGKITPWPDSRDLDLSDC

In the case of `C=C(C)[C@@H]1CCC(C)=C[C@H]1c1c(O)cc(CCCCC)cc1O` [CBD, 2-[(1R,6R)-6-isopropenyl-3-methylcyclohex-2-en-1-yl]-5-pentylbenzene-1,3-diol], the “Permeation of CBD (receptor compartment)” value in data set [1] (1 hour after application of the composition to the skin) was “No permeation”. In data set [1] (setting [3]), the “CBD in the stratum corneum (tape stripping)” value is listed as “No CBD was found” and the “Permeation of CBD (receptor compartment)” value is “No permeation”. Also, in data set [1] (setting [4]), the “CBD absorbed in the skin” value amounted to 2.38±1.52 μg CBD/cm^2 and the “CBD absorbed in the skin as share of the CBD applied on the top of the skin” value amounted to 15.85%. Besides, in data set [2], the “Affinity for CB2 receptors” value is “very low affinity”.

The values are drawn from US20240156698A1, “BIOCIDE COMPOSITIONS AND USES THEREOF” (PHARMOTECH SA, priority 2021, published 2024).
